Assay results: patent publication US9526762B1, “Multidomain peptides for promoting angiogenesis” (WILLIAM MARSH RICE UNIVERSITY, priority 2013, dated 2016)

T1: MMP-2 (Homo sapiens, UniProt P08253)
T1 sequence (P08253 110-660): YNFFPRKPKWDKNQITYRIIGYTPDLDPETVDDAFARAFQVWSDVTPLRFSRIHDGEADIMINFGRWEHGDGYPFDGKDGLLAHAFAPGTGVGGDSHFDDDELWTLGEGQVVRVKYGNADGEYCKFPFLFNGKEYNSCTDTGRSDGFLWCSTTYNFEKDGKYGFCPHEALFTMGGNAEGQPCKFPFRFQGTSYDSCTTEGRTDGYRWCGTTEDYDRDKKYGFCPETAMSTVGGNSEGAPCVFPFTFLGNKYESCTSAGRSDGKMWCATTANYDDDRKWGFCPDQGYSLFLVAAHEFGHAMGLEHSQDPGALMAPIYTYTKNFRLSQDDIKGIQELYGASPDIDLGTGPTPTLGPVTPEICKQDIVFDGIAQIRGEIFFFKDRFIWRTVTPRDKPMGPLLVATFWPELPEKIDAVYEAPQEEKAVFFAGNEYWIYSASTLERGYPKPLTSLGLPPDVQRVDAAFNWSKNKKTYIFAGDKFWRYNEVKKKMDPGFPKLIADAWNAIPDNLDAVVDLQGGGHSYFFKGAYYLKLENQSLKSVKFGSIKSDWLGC

T2: angiogenic peptide SLanc: K-(SL)3(RG)(SL)3-K-G-KLTWQELYQLKYKGI
T2 chain: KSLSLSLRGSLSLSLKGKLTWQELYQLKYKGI

B1: MMP-2 (protein)
chain: T1 sequence (P08253 110-660)

Legend:
HUVEC = assay: Scratch wound healing assay; type: cell-based, human; conditions: 1 μM soluble peptide, low FBS (0.5%) media, 18 hr
Description: HUVEC were seeded in a 12-well plate (25,000 per well) and grown to confluence (n=6). A scratch wound was made in each of the wells with a 1 mL pipet tip. Cell surfaces were then washed with HBSS. Cell culture media with 0.5% FBS and 1 μM peptides (SLanc, SLac, PBS) alone was added on top of cells, n=6. Surfaces were imaged immediately. Cells were then incubated at 37° C. for 18 h imaged again in the same location. NIH Image J was used to measure the infiltration distance by migrating HUVEC.

THP-1 cells = assay: Immunogenicity with THP-1 cells atop scaffolds (ELISA); type: cell-based; conditions: ELISA at 24 hr
Description: 200 μL gels were cast in 24 well plates. Rat tail tendon (RTT), Puramatrix™ (Pura) and Matrigel™ were used as gel controls, and TCP with macrophages differentiated to M1 (20 ng/mL IFN-γ+LPS) and M2 (20 ng/mL IL-4) phenotype were used as cell controls. THP-1 cells in suspension were suspended in media and incubated at a concentration of 1M cells/well atop scaffolds. Media aliquots were assayed for inflammatory (IL-1β, TNF-α), and anti-inflammatory (IL-10) at 24 hr using ELISA (Biolegend, Calif.).

MMP-2 = target: T1, MMP-2; assay: In vitro degradation of SLanc with MMP-2 (MALDI-MS); type: biochemical; conditions: in vitro incubation with MMP-2, MALDI-MS
Excerpt: Chemical moieties introduced into the peptide sequence can tailor the host response to materials. In the design of SLanc, an MMP-2 cleavage sequence was introduced into the central peptide backbone. This sequence can be cleaved specifically with MMP-2, which is secreted by a host of infiltrating cells ranging from macrophages to fibroblasts. […] Additional functionality was afforded to SLanc to enhance angiogenesis by addition of QK derived from VEGF-165.

[1] = test system: human mesenchymal stem cells (hMSCs); assay: hMSC adhesion on hydrogel scaffolds; type: cell-based; conditions: 2000 hMSC per gel, 5 days at 37° C., nuclei counted
Description: SLanc, SLac, SL, and RTT hydrogels (50 μL) were cast in 16-well chamber slides (n=6). hMSC (2000 on each gel) were seeded, and compared to TCP surfaces. Cells were incubated for 5 days at 37° C. Actin filaments were stained with Alexafluor Phalloidin 488 (Life Technologies) and DAPI (Life Technologies). Cell morphology was noted and nuclei counted to quantify proliferation.

Wistar rats = assay: Subcutaneous implants in rats, histologic and angiogenic evaluation; type: in vivo; conditions: rat
Description: Female Wisar rats (225-250 g, Charles River Labs, Wilmington, Mass.) were anesthetized using isofluorane (2% for induction and 1% for maintenance), dorsal aspect shaved and sterilely prepped. Hydrogel scaffolds of each SL, SLc, SLac, SLanc or controls: Pura, VEGF (1 μg/mL) were made were loaded in syringes with 22 gage needles. 200 μL subcutaneous injections were injected in 4 different 1.5 inch spaced randomized sites on the dorsal aspect, on either side between the lower thoracic and upper lumber vertebrae. At prescribed timepoints 3 day, 1 week, 2 weeks and […] rats were euthanized using an overdose of isoflurane, CO2 asphyxiation, and bilateral thoracic puncture. The dorsal skin was removed around the entire implant, washed with PBS, and fixed in neutral buffered formalin for 24 hr prior to processing.
Tissue was processed to paraffin blocks, sectioned at 7 μm, deparraffinized and stained for cellular infiltrate using H&E. Cellular infiltrate was determined using immunostaining Mural cell staining associated with angiogenesis was determined by staining for endothelial cells: goat anti-rat CD31+ (Santa Cruz Biotechnology), mouse anti-rat vWF (ABCam); smooth muscle cells: rabbit anti-rat α-SMA+ (Dako); pericytes: mouse anti-rat Nestin+ (Millipore); hematopoitic stem cells: mouse anti-rat CD45 (Santa Cruz Biotechnology), and nucleic DAPI counterstain. Secondary antibodies used were goat anti-rabbit AF 488, donkey anti-goat AF 488, anti-goat AF 488 (Life Technologies), donkey Streptavidin AF 647 (Life Technologies), goat anti-mouse AF 647 and donkey anti-rabbit AF 647. Angiogenesis was quantified by measuring the diameter of vessels (small axis for non-circular vessels), density of vessels (vessels per unit area), presence and thickness of vessel wall (graded from 1 to 3: 1—non-contiguous vessel wall, 2: contiguous thin vessel wall, 3: contiguous multicell thick vessel wall) (n=4 separate sections, n=4 samples).
In modeled diseases such as ligated femoral artery ischemic limb wounds or myocardial infarction several host tissue responses are activated. From secretion of mediators of inflammation such as MCP-1, IL-4, IL-10, SDF-1 and GCSF to growth factors such as VEGF, FGF and EGF extrinsic factors can drastically influence performance of novel materials. As such, prior to use in a disease model, evaluation of scaffolds without concomitant influence from native immune responses was critical. 200 μL subcutaneous implants were randomly made in the dorsal aspect of Wistar rats between the cervical and lumbar vertebrae and 1-2 cm lateral to the midline. 1 w % scaffolds were prepared aseptically by crosslinking 2 w % peptide with an equal volume of HBSS, and injected via 21 gage needle below the skin. At 3 day, 1 week, 2 week and 3 week timepoints, rats were euthanized and scaffolds with surrounding tissue and skin removed. Scaffolds were trimmed, fixed in formalin, embedded in paraffin, sectioned and (immuno-) stained. […] These scaffolds seemed to have completely diffused away or degraded 3 days post-implant. […] Development of blood vessels is dependent on the stimuli the host and scaffold provides. VEGF loaded scaffolds presented 100 ng of recombinant protein (13 nM) within scaffolds. […] These cells of immune, hematopeotic and mesenchymal origin provide a niche for reconstitution of scaffolds. Coupled with recruitment and growth of endothelial feeders from existing vessels, we posit that pericytic cells enhance stability of growing vessels in a paracrine fashion providing adequate support for generation of arterioles.

[2] = target: T2, angiogenic peptide SLanc: …

fibrous capsule around implant (Wistar rats; subcutaneous implant)	Molecule	migration of HUVEC into scratch wound (HUVEC)	IL-1β secretion by THP-1 cells (THP-1 cells)	TNF-α secretion by THP-1 cells (THP-1 cells)	degradation by MMP-2 (MMP-2)	hMSC adhesion to scaffold [1]	cellular infiltration of scaffold (H&E) (Wistar rats; 200 μL subcutaneous injection, 1 w % scaffold)	perfusion of neovessels (CD45 / vWF immunostaining) (Wistar rats; subcutaneous implant)	time to development of angiogenic networks (Wistar rats; subcutaneous implant)	time to resorption of vessels and implants (Wistar rats; subcutaneous implant)	time to stable vessels (Wistar rats; subcutaneous implant)	vessels in scaffold at 3 day (Wistar rats; subcutaneous implant, 3 day)	vessel maturity by immunostaining at 7 day and 2 weeks (Wistar rats; subcutaneous implant, 7 day and 2 weeks)	hemangiomas or hemorrhaging (Wistar rats; subcutaneous implant, up to 3 weeks)	macro-scale vessels visible upon explant (Wistar rats; subcutaneous implant, compared to SLc or SLc+VEGF scaffolds)	enzymatic cleavage of the peptide, MALDI mass spectrometry of fragments [2]
–	K-(SL)3-(RG)-(SL)3-K-(GRGDS) (KSLSLSLRGSLSLSLKGRGDS) [SLac, adhesion and cleavage peptide]	significantly higher proliferation than TCP	–	–	–	–	–	–	–	–	–	–	–	–	–	–
lack of a fibrous capsule	Ac-KSLSLSLRGSLSLSLKGKLTWQELYQLKYKGI-NH2 [SLanc, K-(SL)3(RG)(SL)3-K-G-KLTWQELYQLKYKGI]	significantly higher proliferation than TCP	significantly lower than LPS activated cells, with levels similar to commercially available scaffolds (Puramatrix™ and Matrigel™)	significantly lower than LPS activated cells, with levels similar to commercially available scaffolds (Puramatrix™ and Matrigel™)	yields a variety of peptide fragments around the cleavage site	increased adhesion to SLanc over non-functionalized scaffolds	significantly greater cellular population	CD45+ hematopoietic cells were noted within vWF+ vessels suggesting patent perfused mature neovessels	≤ 3 days	≤ 3 weeks	≤ 7 days	small nascent vessels	mature Nestin+, α-SMA+, and CD31+ cells	without development of hemangiomas or hemorrhaging	visible macro-scale vessels	–
–	B1	–	–	–	–	–	–	–	–	–	–	–	–	–	–	In vitro demonstration of physiological degradation of SLanc with the addition of MMP-2, yields a variety of peptide fragments around the cleavage site
